Source: US20040242870A1, “Antiviral methods and compounds” (priority 2000, published 2004)
Values after ≈ are worked out from the molar mass of the structure shown.

Tests used:
HIV-1 strain RoJo = assay: PBMC time-of-addition assay (RT in cell-free supernatant at 6 days); format: cell-based
Protocol: Peripheral blood monocular cells (PBMCs) were obtained from normal hepatitis and HIV-1 negative donors by ficoll hypaque gradient separation. The mononuclear cells were washed to remove residual separation media, counted, viability determined and resuspended in RPMI 1640 medium supplemented with 15 % FBS (heat inactivated), 2 mM L-glutamine, 100 U/mL penicillin, 100 μg/mL streptomycin, and 10 μg/mL gentamycin with 2 μg/mL phytohemagluttin (PHA) at 1×10^6 cells/mL. The cells were cultured for 48 to 72 h at 37° C., 5% CO2. Following incubation, cells were collected by centrifugation, washed and resuspended in RPMI 1640 supplemented with 15% FBS (heat inactivated), 2 mM L-glutamine, 100 U/mL penicillin, 100 μg/mL streptomycin, and 10 μg/mL gentamycin with 20 U/mL recombinant IL-2 (R & D Systems, Minneapolis, Minn.). IL-2 was included in the culture medium to maintain the cell division initiated by the PHA mitogenic stimulation, and promote optimal growing conditions for the PBMCs. The cultures were then maintained until use by ½ culture volume change with fresh IL-2 containing medium every 3 days.
(§1) Human peripheral blood mononuclear cells from a minimum of 2 donors, that have been blasted with PHA and IL-2, were counted, viability determined by Trypan Blue dye exclusion and mixed in equal ratios. Pooled donors were used to minimize the variability observed between individual donors which results from quantitative and qualitative differences in HIV infection and overall response to the PHA and IL-2 of primary lymphocyte populations. The cells were resuspended at 1×10^6 cells/mL in RPMI 1640 without phenol red supplemented with 15% Fetal Bovine Serum (heat inactivated), 2 mM L-glutamine, 100 U/mL penicillin, 100 μg/mL streptomycin, 10 μg/Ln gentamycin and IL-2 (20 U/mL, R&D Systems, Minneapolis, Minn.). Fifty microliters of cells were then distributed to the inner 60 wells of a 96 well round bottom microtiter culture plate in a standard format developed by the Infectious Disease Research department of Southern Research Institute. Each plate contains cell control wells (cells only), virus control wells (cells plus virus), and experimental wells (drug plus cells plus virus). Alternatively, cells were cultured in T25 cm^2 or T75 cm^2 tissue culture flasks at a starting density of 1×10^6 cells per ml. Serially diluted compounds were added to the microtiter plate or tissue culture flask followed by the appropriate pre-titered strain of HIV-1. For virus replication inhibition experiments the HIV-1 strain RoJo was used. This is a low passage presumable subtype B pediatric isolate with a syncytium inducing (SI) phenotype in MT-2 cells isolated by Southern Research Institute personnel. All samples were assayed in triplicate where possible with an accompanying determination of compound toxicity. The final volume per well in the microtiter plates was 200 μL. The final volume in the tissue culture flask varied depending upon experimental design and flask size. Assays were incubated for 6 days in a humidified atmosphere at 37° C., 5% CO2, after which supernatants were collected, for analysis of RT activity and cell viability by MTS dye reduction. Culture were also examined microscopically, any abnormalities noted, and in the case of tissue culture flasks cell counts and viability determined by Trypan Blue Dye exclusion.
Time-of-addition assays were performed with PBMCs in two ways. For both assays, PBMCs were isolated and cultured under the conditions as described above. Time-of-addition assays were carried out in either a tissue culture flask format (T-75 cm^2) or in microtiter wells. In both cases due to the lack of plastic adherence and heterogeneity of the PBMC population for susceptibility to infection, it was not possible to use complete removal of virus following a timed adsorption to synchronize the infection and limit the assay to a single round of infection. […]

PBMCs [1] = assay: PBMC cytotoxicity in time-of-addition assay; format: cell-based, Human
Description: as §1
Time-of-addition assays were performed with PBMCs in two ways. For both assays, PBMCs were isolated and cultured under the conditions as described above. Time-of-addition assays were carried out in either a tissue culture flask format (T-75 cm^2) or in microtiter wells. In both cases due to the lack of plastic adherence and heterogeneity of the PBMC population for susceptibility to infection, it was not possible to use complete removal of virus following a timed adsorption to synchronize the infection and limit the assay to a single round of infection. Therefore, serial washing by partial removal of the media was used to reduce the concentration of virus and compound (if required) in the assay. Compound addition in relationship to antiviral activity was either assessed over a short addition interval immediately before or after virus addition or for up to 72 h post infection. For all assays virus replication was assessed at 6 days of culture by determining RT expression in cell-free supernatants. In the tissue culture flask format cells were counted and Trypan Blue Dye exclusion used to monitor compound cytotoxicity. Cell viability in the 96 well microtiter plate format was determined by MTS dye reduction. AZT was used as a positive control.
At assay termination the assay plates were stained with the soluble tetrazolium-based dye MTS (CellTiter96® Reagent Promega) to determine cell viability and quantify compound toxicity. MTS is metabolized by the mitochondria enzymes of metabolically active cells to a soluble formazan product, allowing the rapid quantitative analysis cell viability and compound cytotoxicity. […] At termination of the assay 20 μL of MTS reagent was added per well and incubated for 4 h at 37° C. […]

PBMCs [2] = assay: PBMC apoptosis by flow cytometry (APO-BRDU kit); format: cell-based, Human
Protocol: Flow cytometry studies were carried out on PHA/IL-2 induced PBMCs treated for 6 days with the various test compounds. Prior to flow cytometry the PBMCs were washed, counted and 1×10^6 cells resuspended in PBS and stained for CD4 or CD8 surface markers using anti-CD4.PE or CD8.PE (both from PharMingen) for 30 min at 4° C. The PBMC were then washed, fixed (Cytofix) and permeabilized (Cytoperm) followed by staining for apoptosis-related DNA damage. Initial experiments used the BrdU Flow Kit from PharMigen (2354KK). […] For both kits, manufacturers instructions were followed for staining and analysis of the samples. Following the appropriate staining protocol the cells were analyzed using a Becton Dickinson (Bedford, Mass.) FACSSort
In another series of experiments, the IG compounds and cannabidiol treated cells were assessed for the induction of apoptosis (see Tables 8 and 9). […] As IL-2 is an essential component for maintaining the health of PHA induced PBMCs, a second focus of these studies focuses on the effect of the compounds in the absence of IL-2.

HIV-1 [3] = assay: HeLa CD4 LTR β-gal HIV-1 attachment assay; format: cell-based; details: Human immunodeficiency virus 1, HeLa, read-out: IC50
Protocol: The attachment assay was performed with the HeLa CD4 LTR , β-gal cells available from the AIDS Research and Reference Reagent Repository. […] HeLa CD4 LTR β-gal cells express cell surface CD4 and contain an LTR β-galactosidase reporter construct. Upon infection either the Tat protein incorporated into the virion or new Tat produced following virus integration and transcription trans-activates the LTR β-gal reporter, leading to expression of the β-galactosidase enzyme. HeLa CD4 LTR β-gal cells are routinely cultured with the required selection antibiotics and screened for mycoplasma contamination. Twenty-four h prior to initiation of the assay cells were trypsinized, counted and 1×10^4 cells placed in a 0.2 cm well in media without selection antibiotics. […] A known titer of virus was then added to the wells and the incubation continued for 1 h. At the end of the incubation the wells were washed 6 times with media and the culture continued for 48 h. At 48 h the wells were washed one time with PBS and β-galactosidase enzyme expression determined by chemiluminescence per manufacturers instructions (Tropix Gal-screen™, Tropix, Bedford, Mass.). Compound toxicity was monitored on sister plates using MTS dye reduction.

HeLa CD4 LTR β-gal cells = assay: Compound toxicity in attachment assay (MTS dye reduction, sister plates); format: cell-based
Protocol: At assay termination the assay plates were stained with the soluble tetrazolium-based dye MTS (CellTiter96® Reagent Promega) to determine cell viability and quantify compound toxicity. MTS is metabolized by the mitochondria enzymes of metabolically active cells to a soluble formazan product, allowing the rapid quantitative analysis cell viability and compound cytotoxicity. […] At termination of the assay 20 μL of MTS reagent was added per well and incubated for 4 h at 37° C. Adhesive plate sealers were used in place of the lids, the sealed plate was inverted several times to mix the soluble formazan product and the plate was read spectrophotometrically at 490 nm with a Molecular Devices Vmax plate reader.
The attachment assay was performed with the HeLa CD4 LTR , β-gal cells available from the AIDS Research and Reference Reagent Repository. […] HeLa CD4 LTR β-gal cells express cell surface CD4 and contain an LTR β-galactosidase reporter construct. Upon infection either the Tat protein incorporated into the virion or new Tat produced following virus integration and transcription trans-activates the LTR β-gal reporter, leading to expression of the β-galactosidase enzyme. HeLa CD4 LTR β-gal cells are routinely cultured with the required selection antibiotics and screened for mycoplasma contamination. Twenty-four h prior to initiation of the assay cells were trypsinized, counted and 1×10^4 cells placed in a 0.2 cm well in media without selection antibiotics. Media was removed at 24 h and compound in media placed on the cells and incubated for 15 to 30 min at 37° C. A known titer of virus was then added to the wells and the incubation continued for 1 h. At the end of the incubation the wells were washed 6 times with media and the culture continued for 48 h. At 48 h the wells were washed one time with PBS and β-galactosidase enzyme expression determined by chemiluminescence per manufacturers instructions (Tropix Gal-screen™, Tropix, Bedford, Mass.). Compound toxicity was monitored on sister plates using MTS dye reduction.

HIV-1 [4] = assay: HeLa CD4 LTR β-gal/HL2/3 HIV-1 fusion assay; format: cell-based; details: Human immunodeficiency virus 1, HL2/3, read-out: Antiviral Activity IC50
Description: This assay uses the HeLa CD4 LTR β-gal and HL2-3 cells available from the AIDS Research and Reference Reagent Repository. The HL2/3 are derived from HeLa cells and engineered to express HIV gp120 on their cell surface and Tat protein in their cytoplasma. Thus following gp 120/CD4/coreceptor-mediated fusion; cytoplasmic mixing results in the HL2/3 cell-derived Tat trans-activation of the β-galactosidase reporter. […] Twenty-four h prior to initiation of the assay cells were trypsinized, counted and 5×10^3 cells placed in a 0.2 cm well in media without selection antibiotics. To initiate the fusion assay HeLa CD4 LTR β-gal (5×10^3 cells per 0.2 cm well) were incubated with compound for 1 h at 37° C. HL2/3 cells (5×10^3) were added to the 0.2 cm well and the incubation continued for 48 h. At 48 h the wells were washed 1 time with PBS and β-galactosidase enzyme expression determined by chemiluminescence per manufacturers instructions (Tropix Gal-screen™, Tropix, Bedford, Mass.). Compound toxicity was monitored on sister plates using MTS dye reduction.

[5] = IL-2 supplemented media, 1 μM, HIV +
[6] = IL-2 supplemented media, 1 μM, HIV −

## Cc1cn([C@H]2C[C@H](N=[N+]=[N-])[C@@H](CO)O2)c(=O)[nH]c1=O [AZT, reference compound]
HIV-1 strain RoJo; 4 h preincubation
  enhancement of activity: 4.6 fold
HIV-1 strain RoJo; pre-treat 0 h prior to infection
  IC50: 1.3 nM
HIV-1 strain RoJo; pre-treat 2 h prior to infection
  IC50: 1.1 nM
HIV-1 strain RoJo; pre-treat 4 h prior to infection
  IC50: 1.1 nM
HIV-1 strain RoJo; pre-treat 24 h prior to infection
  IC50: 3.1 nM
PBMCs [1]; 6 h post infection
  TC50: >4000 nM
PBMCs [1]; at infection
  TC50: >4000 nM
PBMCs [1]; −4 h pre (relative to infection)
  TC50: >4000 nM
PBMCs [2]; IL-2 deficient media, 1 μM, HIV +
  % Apoptosis: 13.7%
PBMCs [2]; IL-2 deficient media, 1 μM, HIV −
  % Apoptosis: 15.1%
PBMCs [2]; [5]
  % Apoptosis: 13.3%
  Fold Change: 0.8
PBMCs [2]; [6]
  % Apoptosis: 15.0%
  Fold Change: 1.3

## COc1cc(-c2ccc(/N=N/c3ccc4c(S(=O)(=O)O)cc(S(=O)(=O)O)c(N)c4c3O)c(OC)c2)ccc1/N=N/c1ccc2c(S(=O)(=O)O)cc(S(=O)(=O)O)c(N)c2c1O [CSB, Chicago Sky Blue, reference compound]
HIV-1 [3]; Experiment 1, pretreat 0 h
  IC50: 1.1 µg/mL (≈ 1.22 µM)
HIV-1 [3]; Experiment 1, pretreat 4 h
  IC50: 1.71 µg/mL (≈ 1.89 µM)
HIV-1 [3]; Experiment 1, pretreat 24 h
  IC50: 1.3 µg/mL (≈ 1.44 µM)
HIV-1 [3]; Experiment 2, pretreat 0 h
  IC50: 0.17 µg/mL (≈ 0.188 µM)
HIV-1 [3]; Experiment 2, pretreat 4 h
  IC50: 2.11 µg/mL (≈ 2.33 µM)
HIV-1 [3]; Experiment 2, pretreat 24 h
  IC50: 4.7 µg/mL (≈ 5.19 µM)
HeLa CD4 LTR β-gal cells; Experiment 1, pretreat 0 h
  TC50: >10 µg/mL
HeLa CD4 LTR β-gal cells; Experiment 1, pretreat 4 h
  TC50: >10 µg/mL
HeLa CD4 LTR β-gal cells; Experiment 1, pretreat 24 h
  TC50: >10 µg/mL
HeLa CD4 LTR β-gal cells; Experiment 2, pretreat 0 h
  TC50: >10 µg/mL
HeLa CD4 LTR β-gal cells; Experiment 2, pretreat 4 h
  TC50: >10 µg/mL
HeLa CD4 LTR β-gal cells; Experiment 2, pretreat 24 h
  TC50: >10 µg/mL
HIV-1 [4]
  IC50: 1.75 µg/mL (≈ 1.93 µM)

B1: FAS: positive control (kit and Fas ligand) of the apoptosis procedure (protein, UniProt P48023 130-281, looked up)
Tumor necrosis factor ligand …: QIGHPSPPPEKKELRKVAHLTGKSNSRSMPLEWEDTYGIVLLSGVKYKKGGLVINETGLYFVYSKVYFRGQSCNNLPLSHKVYMRNSKYPQDLVMMEGKMMSYCTTGQMWARSSYLGAVFNLTSADHLYVNVSELSLVNFEESQTFFGLYKL
PBMCs [2]; IL-2 deficient media, HIV +, positive control, concentration not given
  % Apoptosis: 16.2%
PBMCs [2]; IL-2 deficient media, HIV −, positive control, concentration not given
  % Apoptosis: 13.7%
PBMCs [2]; IL-2 supplemented media, HIV +, positive control, concentration not given
  % Apoptosis: 17.3%
PBMCs [2]; IL-2 supplemented media, HIV −, positive control, concentration not given
  % Apoptosis: 17.8%
